Paper PMC11242993, “Evaluation of the Therapeutic Potential of Sulfonyl Urea Derivatives as Soluble Epoxide Hydrolase (sEH) Inhibitors” (Molecules, 2024)

Legend:
human recombinant sEH = molecular target: T1, human recombinant sEH (Homo sapiens, UniProt P34913); experiment: Fluorescence-based sEH activity assay (PHOME substrate), human enzyme; assay type: biochemical; details: for IC50: dose-dependent assay, read-out: Human sEH Inhibition IC50
T1 construct: purchased Cayman Chemical 10011671
T1 sequence (P34913 1-555): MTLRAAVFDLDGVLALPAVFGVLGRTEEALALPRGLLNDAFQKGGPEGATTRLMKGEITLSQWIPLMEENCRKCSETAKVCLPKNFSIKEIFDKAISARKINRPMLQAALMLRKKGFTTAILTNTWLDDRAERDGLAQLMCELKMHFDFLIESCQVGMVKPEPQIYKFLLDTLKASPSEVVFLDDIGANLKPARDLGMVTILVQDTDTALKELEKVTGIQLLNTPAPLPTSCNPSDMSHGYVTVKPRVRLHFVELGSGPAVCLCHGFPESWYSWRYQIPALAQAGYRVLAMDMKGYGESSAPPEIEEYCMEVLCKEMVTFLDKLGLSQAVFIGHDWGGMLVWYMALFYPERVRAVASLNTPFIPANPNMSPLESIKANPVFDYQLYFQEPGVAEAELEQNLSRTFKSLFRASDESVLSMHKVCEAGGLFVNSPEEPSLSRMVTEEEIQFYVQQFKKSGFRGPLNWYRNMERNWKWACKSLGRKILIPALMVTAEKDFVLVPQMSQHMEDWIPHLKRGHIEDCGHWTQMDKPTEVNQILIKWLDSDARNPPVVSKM
Method: A fluorescence-based sEH activity assay provided a convenient method for screening human epoxide hydrolase inhibitors. The assay utilized (3-Phenyl-oxiranyl)-acetic acid cyano-(6-methoxy-naphthalen-2-yl)-methyl ester (PHOME) as a substrate. […] The inhibitory function of the compounds on sEH activity was tested as detailed in the product manual from Cayman Chemical. Briefly, 3 mL sEH assay buffer (10×) was diluted with 27 mL HPLC-grade water. This final assay buffer, 25 mM bis-tris (pH 7.0), was used in the assay and for the dilution of the soluble epoxide hydrolase (sEH) enzyme. Amounts of 12 μL each of human and mouse recombinant sEH were thawed on ice. Prior to assaying, 588 μL cold assay buffer was added directly to the enzyme vial. An amount of 190 μL assay buffer and 5 μL solvent (40% DMSO in assay buffer) were added to the background wells. In the 100% initial activity wells, 185 μL assay buffer, 5 μL sEH, and 5 μL solvent were added. In inhibitor wells, 185 μL assay buffer, 5 μL solution of the synthesized compounds, and 5 μL of recombinant enzyme solution were added.
(§1) Average fluorescence (AF) of the background wells and 100% initial activity in the wells and of each of the inhibitors were determined. The background AF was subtracted from the 100% initial activity and inhibitor AFs. The % sEH activity is calculated as (inhbitited AF/% 100 initial activity) × 100.
(§2) Multiple concentrations of the inhibitors were tested followed by plotting of the percent activity as a function of inhibitor concentration to determine the IC50 values.

mouse recombinant sEH = molecular target: T2, mouse recombinant sEH (Mus musculus, UniProt P34914); experiment: Fluorescence-based sEH activity assay (PHOME substrate), mouse enzyme; assay type: biochemical; details: dose-dependent assay; read-out: Mouse sEH Inhibition IC50
T2 sequence (P34914 1-554): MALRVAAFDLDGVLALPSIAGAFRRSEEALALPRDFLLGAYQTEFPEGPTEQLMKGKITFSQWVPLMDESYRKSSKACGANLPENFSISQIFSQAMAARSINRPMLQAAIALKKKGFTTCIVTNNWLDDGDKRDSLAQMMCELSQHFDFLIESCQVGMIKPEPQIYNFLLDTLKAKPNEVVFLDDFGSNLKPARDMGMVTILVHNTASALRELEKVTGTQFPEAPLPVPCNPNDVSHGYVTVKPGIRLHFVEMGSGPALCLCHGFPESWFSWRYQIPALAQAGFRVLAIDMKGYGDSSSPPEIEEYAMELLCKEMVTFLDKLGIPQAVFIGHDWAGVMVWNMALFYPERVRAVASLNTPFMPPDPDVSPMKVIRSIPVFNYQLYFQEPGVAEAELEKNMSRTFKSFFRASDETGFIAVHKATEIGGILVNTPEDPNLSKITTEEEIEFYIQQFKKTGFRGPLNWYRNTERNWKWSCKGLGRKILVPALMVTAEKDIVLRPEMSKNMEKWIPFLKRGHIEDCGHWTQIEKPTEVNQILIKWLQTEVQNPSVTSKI
Method: A fluorescence-based sEH activity assay provided a convenient method for screening human epoxide hydrolase inhibitors. The assay utilized (3-Phenyl-oxiranyl)-acetic acid cyano-(6-methoxy-naphthalen-2-yl)-methyl ester (PHOME) as a substrate. […] The inhibitory function of the compounds on sEH activity was tested as detailed in the product manual from Cayman Chemical. Briefly, 3 mL sEH assay buffer (10×) was diluted with 27 mL HPLC-grade water. This final assay buffer, 25 mM bis-tris (pH 7.0), was used in the assay and for the dilution of the soluble epoxide hydrolase (sEH) enzyme. Amounts of 12 μL each of human and mouse recombinant sEH were thawed on ice. Prior to assaying, 588 μL cold assay buffer was added directly to the enzyme vial. An amount of 190 μL assay buffer and 5 μL solvent (40% DMSO in assay buffer) were added to the background wells. In the 100% initial activity wells, 185 μL assay buffer, 5 μL sEH, and 5 μL solvent were added. In inhibitor wells, 185 μL assay buffer, 5 μL solution of the synthesized compounds, and 5 μL of recombinant enzyme solution were added. To start the reaction, 5 μL of PHOME was added to each well at a final concentration of 0.25 mM. The microwell plate was shaken carefully for 10 s and covered with a plate cover.
as §1, §2

SMILES | Human sEH % Inhibition (human recombinant sEH) [%] | human sEH inhibitory activity (in words) (human recombinant sEH) | IC50 (human recombinant sEH) [nM] | IC50 (mouse recombinant sEH) [nM]
O=C(NC12CC3CC(CC(C3)C1)C2)NS(=O)(=O)c1ccccc1OC(F)(F)F [Compound 4h, N-((adamantan-1-yl)carbamoyl)-2-(trifluoromethoxy)benzenesulfonamide] | 6.28 | sEH inhibition decreased to a significant extent |  | 
COc1ccc(S(=O)(=O)NC(=O)NC23CC4CC(CC(C4)C2)C3)cc1 [Compound 4e] | 95.39 |  | 2.94 | > 1000
O=S(=O)(NC(=S)NC12CC3CC(CC(C3)C1)C2)c1ccc(OC(F)(F)F)cc1 [Compound 6d, N-((adamantan-1-yl)carbamothioyl)-4-(trifluoromethoxy)benzenesulfonamide] | 96.24 |  | 4.66 | 110
CNN/C(=N\S(=O)(=O)c1ccc(OC(F)(F)F)cc1)NC12CC3CC(CC(C3)C1)C2 [Compound 9b] | 9.83 |  |  | 
N#CC12CC(NC(=O)NS(=O)(=O)c3ccc(OC(F)(F)F)cc3)(C1)C2 [Compound 11b, N-((3-cyanobicyclo [1.1.1]pentan-1-yl)carbamoyl)-4-(trifluoromethoxy)benzenesulfonamide] | 7.47 |  |  | 
O=C(NC1CCCCC1)NS(=O)(=O)c1ccc(OC(F)(F)F)cc1 [Compound 14, N-(cyclohexylcarbamoyl)-4-(trifluoromethoxy)benzenesulfonamide] | 32.26 | none of them showed any activity |  | 
O=C(NC1C2CC3CC(C2)CC1C3)NS(=O)(=O)c1ccc(OC(F)(F)F)cc1 (stereo not shown) [Compound 12, N-((adamantan-2-yl)carbamoyl)-4-(trifluoromethoxy)benzenesulfonamide] | 34.53 | none of them showed any activity |  | 
CC(C)(C)OC(=O)N1CCC(NC(=O)NS(=O)(=O)c2ccc(OC(F)(F)F)cc2)CC1 [Compound 16, tert-butyl 4-(3-((4-(trifluoromethoxy)phenyl)sulfonyl)ureido)piperidine-1-carboxylate] | 23.03 | none of them showed any activity |  | 
O=C(NC1CCN(C(=O)NC23CC4CC(CC(C4)C2)C3)CC1)NS(=O)(=O)c1ccc(OC(F)(F)F)cc1 [Compound 18, N-(1-((adamantan-1-yl)carbamoyl)piperidin-4-yl)-N′-((4-(trifluoromethoxy)phenyl)sulfonyl)carbamimidic acid] | 60.80 |  | 38.7 | 710
O=C(NC1CCNCC1)NS(=O)(=O)c1ccc(OC(F)(F)F)cc1 [Compound 17, N-(piperidin-4-ylcarbamoyl)-4-(trifluoromethoxy)benzenesulfonamide] | 32.02 | none of them showed any activity |  | 
CC(C)(C)c1ccc(S(=O)(=O)NC(=S)NC23CC4CC(CC(C4)C2)C3)cc1 [Compound 6b, N-((adamantan-1-yl)carbamothioyl)-4-(tert-butyl)benzenesulfonamide] | 1.80 |  |  | 
O=C(NC12CC3CC(CC(C3)C1)C2)NS(=O)(=O)c1ccc(C(F)(F)F)cc1 [Compound 4c, N-((adamantan-1-yl)carbamoyl)-4-(trifluoromethyl)benzenesulfonamide] | 34.06 |  |  | 
O=S(=O)(/N=C(\NNc1ccccc1)NC12CC3CC(CC(C3)C1)C2)c1ccc(OC(F)(F)F)cc1 [Compound 9c] | 4.71 |  |  | 
N/C(=N\S(=O)(=O)c1ccc(OC(F)(F)F)cc1)NC12CC3CC(CC(C3)C1)C2 [Compound 8a] | 40.19 |  |  | 
CC(C)(C)c1ccc(S(=O)(=O)NC(=O)NC23CC4CC(CC(O)(C4)C2)C3)cc1 [Compound 10c, 4-(tert-butyl)-N-((-3-hydroxyadamantan-1-yl)carbamoyl)benzenesulfonamide] | 3.08 |  |  | 
O=C(NC12CC3CC(CC(O)(C3)C1)C2)NS(=O)(=O)c1ccc(C(F)(F)F)cc1 [Compound 10b, N-((-3-hydroxyadamantan-1-yl)carbamoyl)-4-(trifluoromethyl)benzenesulfonamide] | 21.26 |  |  | 
CC(C)(C)c1ccc(S(=O)(=O)NC(=O)NC23CC4CC(CC(C4)C2)C3)cc1 [Compound 4d] | 32.7 |  |  | 
COc1ccc(S(=O)(=O)NC(=S)NC23CC4CC(CC(C4)C2)C3)cc1 [Compound 6c, N-((adamantan-1-yl)carbamothioyl)-4-methoxybenzenesulfonamide] | 2.50 |  |  | 
CS/C(=N\S(=O)(=O)c1ccc(OC(F)(F)F)cc1)NC12CC3CC(CC(C3)C1)C2 [Compound 7] | 32.83 |  |  | 
O=C(NS(=O)(=O)c1ccc(OC(F)(F)F)cc1)N1CCC(C(F)(F)F)CC1 [Compound 13, N-((4-(trifluoromethoxy)phenyl)sulfonyl)-4-(trifluoromethyl)piperidine-1-carboxamide] | 2.75 | none of them showed any activity |  | 
O=C(NC12CC(C1)C2)NS(=O)(=O)c1ccc(OC(F)(F)F)cc1 [Compound 11a, N-(bicyclo [1.1.1]pentan-1-ylcarbamoyl)-4-(trifluoromethoxy)benzenesulfonamide] | 4.28 |  |  | 
N#Cc1ccc(S(=O)(=O)NC(=O)NC23CC4CC(CC(C4)C2)C3)cc1 [Compound 4i, N-((adamantan-1-yl)carbamoyl)-4-cyanobenzenesulfonamide] | 19.36 |  |  | 
O=C(NC12CC(F)(C1)C2)NS(=O)(=O)c1ccc(OC(F)(F)F)cc1 [Compound 11c, N-((3-fluorobicyclo [1.1.1]pentan-1-yl)carbamoyl)-4-(trifluoromethoxy)benzenesulfonamide] | 1.67 |  |  | 
Cc1ccc(S(=O)(=O)NC(=O)NC23CC4CC(CC(O)(C4)C2)C3)cc1 [Compound 10a, N-((3-hydroxyadamantan-1-yl)carbamoyl)-4-methylbenzenesulfonamide] | 22.47 |  |  | 
CN(C)N/C(=N\S(=O)(=O)c1ccc(OC(F)(F)F)cc1)NC12CC3CC(CC(C3)C1)C2 [Compound 9d] | 7.65 |  |  | 
O=C(NC12CC3CC(CC(C3)C1)C2)NS(=O)(=O)c1cccc(OC(F)(F)F)c1 [Compound 4g, N-((adamantan-1-yl)carbamoyl)-3-(trifluoromethoxy)benzenesulfonamide] | 1.65 | sEH inhibition decreased to a significant extent |  | 
CN/C(=N\S(=O)(=O)c1ccc(OC(F)(F)F)cc1)NC12CC3CC(CC(C3)C1)C2 [Compound 8b] | 13.06 |  |  | 
